For four molecules, IC50 and inhibition results are on record in ChEMBL document CHEMBL3593230, “Randainins A-D, Based on Unique Diterpenoid Architectures, from Callicarpa randaiensis” (J Nat Prod, 2015).

Calls of active or inactive are those of the source. The rule behind the calls is not given here.

Experiment [1] is described as follows: Cytotoxicity against human Hep2 cells incubated for 3 days by MTT assay. The class given is functional, cell-based. Particulars: HEp-2, 72 h.
Another experiment concerns HepG2. In words: Cytotoxicity against human HepG2 cells incubated for 3 days by MTT assay. It counts as functional, cell-based. Particulars: HepG2, 72 h. For orientation: Formazan colour is commonly taken as a measure of viable cells.
For another experiment, the system named is A549. In words: Cytotoxicity against human A549 cells incubated for 3 days by MTT assay. It counts as functional, cell-based. The settings on record: A549, 72 h.
For the next experiment, the system named is MCF7. As to the kind of experiment: Cytotoxicity against human MCF7 incubated for 3 days by MTT assay. The class given is functional, cell-based. The settings on record: MCF7, 72 h.
Another experiment concerns Neutrophil. As to the kind of experiment: Anti-inflammatory activity in human neutrophils assessed as inhibition of fMLP/CB-induced elastase release incubated for 5 mins followed by fMLP/CB stimulation using MeO-Suc-Ala-Ala-Pro-Val-p-nitroanilide substrate. The class given is functional, cell-based.
Experiment [2] in a line: Anti-inflammatory activity in human neutrophils assessed as inhibition of fMLP/CB-induced superoxide anion generation incubated for 5 mins followed by fMLP/CB stimulation for 10 mins by spectrophotometry. The class given is functional, cell-based, Neutrophil.
The nature of experiment [3]: Anti-inflammatory activity in human neutrophils assessed as inhibition of fMLP/CB-induced elastase release at 28.6 uM incubated for 5 mins followed by fMLP/CB stimulation using MeO-Suc-Ala-Ala-Pro-Val-p-nitroanilide substrate. The settings on record: Neutrophil. The class given is functional.

Take `C[C@@H]1C[C@H]2C(=O)C(C)(C)[C@H](OC=O)CC[C@]2(O)[C@@]1(C)CCC1=CC(=O)OC1`: the IC50 (in general, the point on the concentration scale where inhibition reaches its midpoint) is over 10 µM in experiment [1]; over 10 µM in the experiment with HepG2; over 10 µM in the experiment on A549; over 10 µM with MCF7; “Not Active” in experiment [2] (neutrophil). The inhibition (usually the share of the control response that was lost under treatment) with Neutrophil was “inactive”.

Turning to `C[C@@H]1C[C@H]2C(=O)C(C)(C)[C@H](O)CC[C@]2(O)[C@@]1(C)CCC1=CC(=O)OC1`, the IC50 in experiment [1] was over 10 µM; in the experiment on HepG2, over 10 µM; in the experiment on A549, over 10 µM; in the experiment with MCF7 it was over 10 µM; in experiment [2] (neutrophil) it was “Not Active”. Besides, in the experiment with Neutrophil, the inhibition result is “inactive”.

`C[C@@H]1CC[C@]2(O)[C@H](C[C@@H](O)C2(C)C)C(=O)[C@@]1(C)CCC1=CC(=O)OC1`: the IC50 in experiment [1] was over 10 µM; in the experiment with HepG2, over 10 µM; in the experiment with A549 it was over 10 µM; in the experiment with MCF7, over 10 µM; in experiment [2] (Homo sapiens, Neutrophil, read-out: IC50), 21.5 µM. Further, in experiment [3], the inhibition at 28.6 µM worked out at 35.9%.

For the molecule `C[C@@H]1CC[C@@]2(O)[C@@H](C[C@@H](O)C2(C)C)C(=O)[C@@]1(C)CCC1=CC(=O)OC1`, the IC50 in experiment [1] is over 10 µM; in the experiment with HepG2 it was over 10 µM; in the experiment with A549 it was over 10 µM; in the experiment with MCF7, over 10 µM; in experiment [2] (neutrophil), “Not Active”. Also, the inhibition entry in the experiment on Neutrophil is “inactive”.
